The nature of series [1]: Intrinsic clearance in cryopreserved human hepatocytes measured per 10^6 cells. The class given is ADME, cell-based, Hepatocyte. Conditions: read-out: CLH.
Series [2] is described as follows: Clearance in dog at 5 umol/kg, iv administered as bolus dose in 20 to 30% DMA in PBS. The series is classed as ADME, organism-based, Canis lupus familiaris. Conditions: in vivo.
The nature of series [3]: Oral bioavailability in dog at 30 umol/kg administered as propylene glycol. The class given is ADME, organism-based, Canis lupus familiaris. Conditions: in vivo.
Series [4] in a line: Oral bioavailability in mouse at 30 umol/kg administered as propylene glycol. The class given is ADME, organism-based. Conditions: in vivo.
Series [5] can be described thus: AUC in mouse at 30 umol/kg, po administered as propylene glycol. The class given is ADME, organism-based. Conditions: plasma.
The target in series [6] is Phosphatidylinositol 4,5-bisphosphate 3-kinase catalytic subunit gamma isoform (Homo sapiens, UniProt P48736). Kind of series: Inhibition of human recombinant PI3Kgamma using PIP2 by Kinase-Glo Plus assay. Background: Kinase-Glo reads ATP consumption through a luciferase reaction.
Phosphatidylinositol 4,5-bisphosphate 3-kinase catalytic subunit gamma isoform, sequence (P48736 whole entry, canonical isoform): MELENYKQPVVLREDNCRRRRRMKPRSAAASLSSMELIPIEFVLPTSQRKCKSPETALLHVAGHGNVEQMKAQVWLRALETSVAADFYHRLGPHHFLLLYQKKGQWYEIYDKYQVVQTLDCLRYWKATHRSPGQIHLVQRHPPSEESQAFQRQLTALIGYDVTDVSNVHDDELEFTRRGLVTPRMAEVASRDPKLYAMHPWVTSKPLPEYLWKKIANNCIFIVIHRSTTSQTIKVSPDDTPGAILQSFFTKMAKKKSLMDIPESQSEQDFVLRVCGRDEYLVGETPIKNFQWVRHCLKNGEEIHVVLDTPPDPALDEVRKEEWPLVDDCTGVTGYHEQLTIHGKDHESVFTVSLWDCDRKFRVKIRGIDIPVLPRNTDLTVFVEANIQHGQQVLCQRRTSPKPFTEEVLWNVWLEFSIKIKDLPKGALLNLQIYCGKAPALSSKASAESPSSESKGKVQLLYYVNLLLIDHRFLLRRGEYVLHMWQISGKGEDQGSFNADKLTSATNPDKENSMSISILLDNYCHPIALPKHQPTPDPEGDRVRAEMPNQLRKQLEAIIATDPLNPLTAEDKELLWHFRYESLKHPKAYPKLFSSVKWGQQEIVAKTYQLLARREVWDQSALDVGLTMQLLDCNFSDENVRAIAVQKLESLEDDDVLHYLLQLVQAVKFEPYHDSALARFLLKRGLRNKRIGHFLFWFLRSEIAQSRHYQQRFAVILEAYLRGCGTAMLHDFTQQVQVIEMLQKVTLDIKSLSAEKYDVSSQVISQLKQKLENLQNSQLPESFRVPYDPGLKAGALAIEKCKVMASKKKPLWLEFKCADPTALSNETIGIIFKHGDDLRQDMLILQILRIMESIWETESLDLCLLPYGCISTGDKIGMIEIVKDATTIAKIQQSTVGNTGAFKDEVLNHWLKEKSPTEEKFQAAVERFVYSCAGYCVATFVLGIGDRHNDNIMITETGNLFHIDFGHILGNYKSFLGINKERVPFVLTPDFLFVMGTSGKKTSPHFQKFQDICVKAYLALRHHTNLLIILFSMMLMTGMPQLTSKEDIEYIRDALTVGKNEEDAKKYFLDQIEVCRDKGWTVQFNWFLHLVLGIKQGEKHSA
Series [7] is described as follows: Apparent permeability from apical to basolateral side of human Caco2 cells. The series is classed as ADME, cell-based. Conditions: Caco-2, read-out: permeability. A general note: Caco-2 monolayers are a common model of the intestinal barrier.
The target in series [8] is T1, Phosphatidylinositol 4,5-bisphosphate 3-kinase catalytic subunit alpha isoform (Homo sapiens, UniProt P42336). Kind of series: Inhibition of PI3Kalpha mutant human BT474 cells assessed as inhibition of Akt phosphorylation at […] after 2 hrs. The class given is cell-based. Conditions: bt-474.
Target sequence in this assay (P42336 whole entry, looked up, canonical isoform): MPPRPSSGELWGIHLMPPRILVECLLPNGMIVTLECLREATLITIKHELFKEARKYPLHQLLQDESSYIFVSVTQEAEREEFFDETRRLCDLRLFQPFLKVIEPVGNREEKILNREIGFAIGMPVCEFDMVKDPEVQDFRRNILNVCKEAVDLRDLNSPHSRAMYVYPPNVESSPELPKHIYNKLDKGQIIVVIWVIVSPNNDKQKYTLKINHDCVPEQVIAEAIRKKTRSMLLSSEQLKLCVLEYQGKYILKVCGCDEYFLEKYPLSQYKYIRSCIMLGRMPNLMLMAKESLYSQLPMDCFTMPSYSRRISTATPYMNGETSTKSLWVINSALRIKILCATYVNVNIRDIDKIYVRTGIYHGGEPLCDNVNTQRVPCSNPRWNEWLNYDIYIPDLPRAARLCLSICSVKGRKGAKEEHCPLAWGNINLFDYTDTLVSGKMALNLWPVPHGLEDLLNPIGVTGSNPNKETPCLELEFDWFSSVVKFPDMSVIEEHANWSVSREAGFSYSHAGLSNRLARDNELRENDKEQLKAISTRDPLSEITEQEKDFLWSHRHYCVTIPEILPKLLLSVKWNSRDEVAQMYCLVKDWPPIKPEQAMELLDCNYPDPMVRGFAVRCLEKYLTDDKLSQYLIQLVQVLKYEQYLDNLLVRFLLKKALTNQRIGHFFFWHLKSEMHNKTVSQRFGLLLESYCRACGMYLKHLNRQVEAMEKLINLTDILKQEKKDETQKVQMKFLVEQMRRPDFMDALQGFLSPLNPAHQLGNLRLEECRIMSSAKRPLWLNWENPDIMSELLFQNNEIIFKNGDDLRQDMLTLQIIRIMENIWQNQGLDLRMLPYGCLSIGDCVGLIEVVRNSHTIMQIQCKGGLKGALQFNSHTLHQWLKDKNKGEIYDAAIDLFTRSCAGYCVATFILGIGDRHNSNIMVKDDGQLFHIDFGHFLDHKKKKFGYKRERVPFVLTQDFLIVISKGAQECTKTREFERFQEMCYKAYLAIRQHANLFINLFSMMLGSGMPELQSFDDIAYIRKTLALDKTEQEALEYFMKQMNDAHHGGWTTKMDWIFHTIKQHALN
The nature of series [9]: Fraction unbound in dog plasma. The series is classed as ADME, cell-free, Canis lupus familiaris.
Series [10] is described as follows: Lipophilicity, log D of the compound at pH 7.4 by shake-flask method. Conditions: buffer. The class given is physicochemical.
Series [11] addresses T2, Voltage-gated inwardly rectifying potassium channel KCNH2 (Homo sapiens, UniProt Q12809). Kind of series: Inhibition of human ERG channel.
In series [12] the target is T1, Phosphatidylinositol 4,5-bisphosphate 3-kinase catalytic subunit alpha isoform. Put plainly: Inhibition of human recombinant PI3Kalpha using PIP2 by Kinase-Glo Plus assay.
Target sequence in this assay (P42336 whole entry, canonical isoform): as the sequence (P42336 whole entry, looked up, canonical isoform) above
The nature of series [13]: Volume of distribution in dog at 5 umol/kg, iv administered as bolus dose in 20 to 30% DMA in PBS. The series is classed as ADME, organism-based, Canis lupus familiaris. Conditions: in vivo.
A further series concerns Canis familiaris. Kind of series: Intrinsic clearance in dog at 5 umol/kg, iv administered as bolus dose in 20 to 30% DMA in PBS. The class given is ADME, organism-based, Canis lupus familiaris. Conditions: in vivo.
Series [14] deals with Mus musculus. Kind of series: Intrinsic clearance in mouse at 5 umol/kg, iv administered as bolus dose in 20 to 30% DMA in PBS. The series is classed as ADME, organism-based. Conditions: in vivo.
The nature of series [15]: Clearance in mouse at 5 umol/kg, iv administered as bolus dose in 20 to 30% DMA in PBS. Conditions: in vivo. The series is classed as ADME, organism-based.
Series [16] is described as follows: Fraction unbound in mouse plasma. The class given is ADME, cell-free.
In series [17] the target is T3, Phosphatidylinositol 4,5-bisphosphate 3-kinase catalytic subunit delta isoform (Homo sapiens, UniProt O00329).
T3 sequence (O00329 whole entry): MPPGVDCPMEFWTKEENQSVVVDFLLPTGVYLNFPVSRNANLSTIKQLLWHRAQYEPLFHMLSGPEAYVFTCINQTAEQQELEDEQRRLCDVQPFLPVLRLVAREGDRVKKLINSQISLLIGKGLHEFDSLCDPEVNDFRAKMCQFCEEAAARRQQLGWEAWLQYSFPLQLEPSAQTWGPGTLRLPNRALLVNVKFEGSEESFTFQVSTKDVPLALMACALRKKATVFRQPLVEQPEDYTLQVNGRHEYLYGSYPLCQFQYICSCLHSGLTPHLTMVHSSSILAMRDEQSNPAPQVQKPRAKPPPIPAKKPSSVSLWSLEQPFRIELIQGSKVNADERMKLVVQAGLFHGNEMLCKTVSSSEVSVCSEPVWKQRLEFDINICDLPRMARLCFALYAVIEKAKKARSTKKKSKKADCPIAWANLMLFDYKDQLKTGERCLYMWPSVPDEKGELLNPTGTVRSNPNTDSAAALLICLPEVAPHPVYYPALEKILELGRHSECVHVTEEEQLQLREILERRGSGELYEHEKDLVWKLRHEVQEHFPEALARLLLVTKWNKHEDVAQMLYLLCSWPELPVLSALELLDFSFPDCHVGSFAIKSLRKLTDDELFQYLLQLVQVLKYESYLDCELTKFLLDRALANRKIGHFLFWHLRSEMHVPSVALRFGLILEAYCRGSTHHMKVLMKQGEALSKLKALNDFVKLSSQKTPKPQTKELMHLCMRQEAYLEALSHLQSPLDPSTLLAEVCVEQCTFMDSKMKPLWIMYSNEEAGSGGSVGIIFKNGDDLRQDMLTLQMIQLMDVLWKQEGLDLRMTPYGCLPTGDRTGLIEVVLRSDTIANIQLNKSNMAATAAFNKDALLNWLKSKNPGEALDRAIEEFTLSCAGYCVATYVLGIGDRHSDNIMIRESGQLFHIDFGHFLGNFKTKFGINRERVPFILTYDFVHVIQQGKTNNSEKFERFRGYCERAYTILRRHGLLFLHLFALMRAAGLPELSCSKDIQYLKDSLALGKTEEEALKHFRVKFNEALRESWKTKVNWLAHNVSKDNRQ
Put plainly: Inhibition of human recombinant PI3Kdelta using PIP2 by Kinase-Glo Plus assay.

A short description of series [18]: Volume of distribution in mouse at 5 umol/kg, iv administered as bolus dose in 20 to 30% DMA in PBS. The class given is ADME, organism-based. Conditions: in vivo.
Series [19] is described as follows: Fraction unbound in human plasma. The series is classed as ADME, cell-free.
Series [20] has as its system PC-3. Put plainly: Antitumor activity against human PC3 cells xenograft mouse model assessed as inhibition of tumor growth at 30 mg/kg, po bid in presence of 1-aminobenzotriazole. The class given is functional, organism-based. Further details: dose 30 mg/kg. For orientation: In xenograft studies the graft and the host belong to different species.
Series [21] concerns the target T3, Phosphatidylinositol 4,5-bisphosphate 3-kinase catalytic subunit delta isoform. Put plainly: Inhibition of PI3Kdelta in human Jeko B cells assessed as inhibition of Akt phosphorylation after 2 hrs. The class given is cell-based.
The target in series [22] is T2, Voltage-gated inwardly rectifying potassium channel KCNH2. Kind of series: Inhibition of human ERG channel at 100 uM.
The test system of series [23] is Mus musculus. Kind of series: Inhibition of Akt phosphorylation at Ser473 in PTEN-deficient human PC3 cells xenograft mouse model at 100 mg/kg, po single dose measured up to 8 hrs. The class given is functional, organism-based. Conditions: PC-3. Also on record: dose 100 mg/kg.
Series [24] deals with PC-3. Put plainly: Antitumor activity against human PC3 cells xenograft mouse model assessed as inhibition of tumor growth at 60 mg/kg, po bid in presence of 1-aminobenzotriazole. The series is classed as functional, organism-based. Also on record: dose 60 mg/kg.

The source made the active and inactive calls. The calls are words filed in the database; no cut-off is given here. A value given as a limit tells only on which side of the number the result lay.

T2 sequence (Q12809 whole entry, canonical isoform): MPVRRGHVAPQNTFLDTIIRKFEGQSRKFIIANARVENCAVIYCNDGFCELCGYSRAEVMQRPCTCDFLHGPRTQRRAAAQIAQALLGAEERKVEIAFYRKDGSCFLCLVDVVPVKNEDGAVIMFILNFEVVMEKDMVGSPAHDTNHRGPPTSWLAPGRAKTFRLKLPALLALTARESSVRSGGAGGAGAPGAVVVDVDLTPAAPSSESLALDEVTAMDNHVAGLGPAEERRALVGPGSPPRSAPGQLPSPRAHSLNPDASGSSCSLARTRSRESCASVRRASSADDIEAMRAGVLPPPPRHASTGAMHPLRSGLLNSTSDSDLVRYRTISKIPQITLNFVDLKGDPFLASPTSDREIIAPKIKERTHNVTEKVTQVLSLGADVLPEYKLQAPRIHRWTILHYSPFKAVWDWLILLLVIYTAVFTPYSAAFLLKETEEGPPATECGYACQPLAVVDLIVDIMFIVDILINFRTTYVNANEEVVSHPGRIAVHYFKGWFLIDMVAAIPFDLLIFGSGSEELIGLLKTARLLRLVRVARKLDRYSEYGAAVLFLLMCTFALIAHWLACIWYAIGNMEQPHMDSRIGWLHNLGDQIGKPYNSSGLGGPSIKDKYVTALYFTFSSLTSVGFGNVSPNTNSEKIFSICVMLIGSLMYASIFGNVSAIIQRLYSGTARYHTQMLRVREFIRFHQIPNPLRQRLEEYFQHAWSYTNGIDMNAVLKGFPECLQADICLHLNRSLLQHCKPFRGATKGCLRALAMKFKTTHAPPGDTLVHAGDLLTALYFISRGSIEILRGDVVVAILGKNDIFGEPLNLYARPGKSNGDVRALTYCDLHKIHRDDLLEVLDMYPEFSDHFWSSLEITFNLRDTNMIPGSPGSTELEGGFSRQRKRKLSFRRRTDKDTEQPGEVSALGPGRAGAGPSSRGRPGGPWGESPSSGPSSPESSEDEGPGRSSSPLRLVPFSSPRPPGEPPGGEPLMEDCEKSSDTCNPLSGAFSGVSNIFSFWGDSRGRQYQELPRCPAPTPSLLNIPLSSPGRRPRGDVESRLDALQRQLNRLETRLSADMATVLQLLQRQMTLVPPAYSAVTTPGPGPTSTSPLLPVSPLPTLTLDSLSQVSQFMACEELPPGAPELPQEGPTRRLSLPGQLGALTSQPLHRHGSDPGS

`C[C@H](c1cc(C(=O)N(C)C)cc2c(=O)cc(N3CCOCC3)oc12)N(C)c1cc(F)cc(F)c1`: the hepatocyte CLint in series [1] was under 4 µL/min/1e6 cells. The clearance in [2] came to 27 mL/min/kg; in the series on Canis familiaris, 17 mL/min/kg; with Mus musculus [14] it was 37 mL/min/kg; in series [15] it was 34 mL/min/kg. Moreover, the results for the bioavailability in [3] and in series [4] were 31% and 68%, respectively. Further, the AUC (in general, the area under the concentration-time curve, a measure of exposure) in series [5] came to 8.6 µM·h. Moreover, the 50% inhibitory concentration (IC50) (as a rule, the concentration that gives 50% inhibition) in series [6] came out at 3500 nM; in series [8], 3000 nM; in series [11] it was 19000 nM; in series [12], 280 nM; in [17] it was 73 nM. Besides, the Papp A→B in [7] was found to be 42 ×10⁻⁶ cm/s. Also, the fraction unbound – broadly, the share of the substance not bound to proteins or other matrix – in series [9] was 0.16; in series [16], 0.1; in [19], 0.12. Also, in [10], the log distribution coefficient (logD) – broadly, lipophilicity at a set pH, counting ionised and neutral species – is 2.4. The figures for the volume of distribution (Vd) in [13] and in series [18] were 2.2 L/kg and 2 L/kg, respectively.
Consider `C[C@@H](Nc1cc(F)cc(F)c1)c1cc(C(=O)N(C)C)cc2c(=O)cc(N3CCOCC3)oc12` [AZD-8186], for which the hepatocyte CLint in series [1] was 4 µL/min/1e6 cells. The clearance in [2] was determined as 36 mL/min/kg; in the series with Canis familiaris it was 11 mL/min/kg; in the series with Mus musculus [14], 73 mL/min/kg; in series [15] it was 77 mL/min/kg. The inhibition entry in the series with PC-3 [20], with Mus musculus [23] and in the series with PC-3 [24] was “Active” in each case. For the same molecule, the bioavailability (in general, dose-corrected exposure relative to a reference, in per cent) in [3] worked out at 23%; in series [4], 18%. In addition, the AUC in series [5] stood at 1.2 µM·h. Also, the IC50 came to 675 nM in [6]; 752 nM in series [8]; 17 nM in series [21]; 35 nM in series [12]; 12 nM in series [17]. In addition, in [7], the Papp A→B was 8 ×10⁻⁶ cm/s. Also, the values for the fraction unbound in [9], in series [16] and in [19] were 0.31, 0.16 and 0.19, respectively. For the same molecule, in series [10], the pH-dependent lipophilicity (logD) amounted to 2.3. In series [22], the “inhibition (INH)” value is “Not Active”. Besides, the Vd (in general, the apparent volume that relates the amount in the body to the concentration in plasma or blood) in series [13] came out at 2.2 L/kg; in series [18], 1.3 L/kg.

The values above are taken from ChEMBL document CHEMBL3407416, “Discovery of (R)-8-(1-(3,5-difluorophenylamino)ethyl)-N,N-dimethyl-2-morpholino-4-oxo-4H-chromene-6-carboxamide (AZD8186): a potent and selective inhibitor of PI3Kβ and PI3Kδ for the treatment of PTEN-deficient cancers” (J Med Chem, 2015).
